Source: PubChem BioAssay (NCI)
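Cultured in 96-well plates, cells were exposed to test compound for 48 hours across five concentrations. GI50 marks 50% less growth. TGI marks complete inhibition of growth.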

Experiments:
Assay in all cases: NCI anticancer screen, dose series, 48 h
786-0 renal = tested on: 786-0 renal
A549 NSCLC = tested on: A549 NSCLC
ACHN renal = tested on: ACHN renal
BT-549 breast = tested on: BT-549 breast
CCRF-CEM leukemia = tested on: CCRF-CEM leukemia
COLO 205 colon = tested on: COLO 205 colon
DU-145 prostate = tested on: DU-145 prostate
EKVX NSCLC = tested on: EKVX NSCLC
HCC-2998 colon = tested on: HCC-2998 colon
HCT-116 colon = tested on: HCT-116 colon
HCT-15 colon = tested on: HCT-15 colon
HL-60(TB) leukemia = tested on: HL-60(TB) leukemia
HOP-62 NSCLC = tested on: HOP-62 NSCLC
HOP-92 NSCLC = tested on: HOP-92 NSCLC
HS 578T breast = tested on: HS 578T breast
HT29 colon = tested on: HT29 colon
IGROV1 ovarian = tested on: IGROV1 ovarian
K-562 leukemia = tested on: K-562 leukemia
KM12 colon = tested on: KM12 colon
LOX IMVI melanoma = tested on: LOX IMVI melanoma
MALME-3M melanoma = tested on: MALME-3M melanoma
MDA-MB-231 breast = tested on: MDA-MB-231 breast
MDA-MB-435 = tested on: MDA-MB-435
MDA-N = tested on: MDA-N
MOLT-4 leukemia = tested on: MOLT-4 leukemia
NCI-H226 lung = tested on: NCI-H226 lung
NCI-H23 lung = tested on: NCI-H23 lung
NCI-H460 lung = tested on: NCI-H460 lung
NCI-H522 lung = tested on: NCI-H522 lung
NCI/ADR-RES ovarian = tested on: NCI/ADR-RES ovarian
OVCAR-3 ovarian = tested on: OVCAR-3 ovarian
OVCAR-4 ovarian = tested on: OVCAR-4 ovarian
OVCAR-5 ovarian = tested on: OVCAR-5 ovarian
OVCAR-8 ovarian = tested on: OVCAR-8 ovarian
PC-3 prostate = tested on: PC-3 prostate
RPMI-8226 leukemia = tested on: RPMI-8226 leukemia
RXF 393 renal = tested on: RXF 393 renal
SF-268 CNS = tested on: SF-268 CNS
SF-295 CNS = tested on: SF-295 CNS
SK-MEL-2 melanoma = tested on: SK-MEL-2 melanoma
SK-MEL-28 melanoma = tested on: SK-MEL-28 melanoma
SK-OV-3 ovarian = tested on: SK-OV-3 ovarian
SN12C renal = tested on: SN12C renal
SNB-19 CNS = tested on: SNB-19 CNS
SNB-75 CNS = tested on: SNB-75 CNS
SR leukemia = tested on: SR leukemia
SW-620 colon = tested on: SW-620 colon
TK-10 renal = tested on: TK-10 renal
U251 CNS = tested on: U251 CNS
UACC-62 melanoma = tested on: UACC-62 melanoma
UO-31 renal = tested on: UO-31 renal
A498 renal = tested on: A498 renal
CAKI-1 renal = tested on: CAKI-1 renal
M14 melanoma = tested on: M14 melanoma
MCF7 breast = tested on: MCF7 breast
SF-539 CNS = tested on: SF-539 CNS
SK-MEL-5 melanoma = tested on: SK-MEL-5 melanoma
T-47D breast = tested on: T-47D breast
UACC-257 melanoma = tested on: UACC-257 melanoma

COc1ccc(N2C(=O)c3cc([N+](=O)[O-])cnc3S2(=O)=O)cc1
TGI (786-0 renal): > 100 µM
TGI (A549 NSCLC): > 100 µM
TGI (ACHN renal): > 100 µM
TGI (BT-549 breast): > 100 µM
TGI (CCRF-CEM leukemia): > 100 µM
TGI (COLO 205 colon): > 100 µM
TGI (DU-145 prostate): > 100 µM
TGI (EKVX NSCLC): > 100 µM
TGI (HCC-2998 colon): > 100 µM
TGI (HCT-116 colon): > 100 µM
TGI (HCT-15 colon): > 100 µM
TGI (HL-60(TB) leukemia): > 100 µM
TGI (HOP-62 NSCLC): > 100 µM
TGI (HOP-92 NSCLC): > 100 µM
TGI (HS 578T breast): > 100 µM
TGI (HT29 colon): > 100 µM
TGI (IGROV1 ovarian): > 100 µM
TGI (K-562 leukemia): > 100 µM
TGI (KM12 colon): > 100 µM
TGI (LOX IMVI melanoma): > 100 µM
TGI (MALME-3M melanoma): > 100 µM
TGI (MDA-MB-231 breast): > 100 µM
TGI (MDA-MB-435): > 100 µM
TGI (MDA-N): > 100 µM
TGI (MOLT-4 leukemia): > 100 µM
TGI (NCI-H226 lung): > 100 µM
TGI (NCI-H23 lung): > 100 µM
TGI (NCI-H460 lung): > 100 µM
TGI (NCI-H522 lung): > 100 µM
TGI (NCI/ADR-RES ovarian): > 100 µM
TGI (OVCAR-3 ovarian): > 100 µM
TGI (OVCAR-4 ovarian): > 100 µM
TGI (OVCAR-5 ovarian): > 100 µM
TGI (OVCAR-8 ovarian): > 100 µM
TGI (PC-3 prostate): > 100 µM
TGI (RPMI-8226 leukemia): > 100 µM
TGI (RXF 393 renal): > 100 µM
TGI (SF-268 CNS): > 100 µM
TGI (SF-295 CNS): > 100 µM
TGI (SK-MEL-2 melanoma): > 100 µM
TGI (SK-MEL-28 melanoma): > 100 µM
TGI (SK-OV-3 ovarian): > 100 µM
TGI (SN12C renal): > 100 µM
TGI (SNB-19 CNS): > 100 µM
TGI (SNB-75 CNS): > 100 µM
TGI (SR leukemia): > 100 µM
TGI (SW-620 colon): > 100 µM
TGI (TK-10 renal): > 100 µM
TGI (U251 CNS): > 100 µM
TGI (UACC-62 melanoma): > 100 µM
TGI (UO-31 renal): > 100 µM

O=C(/C=C\c1ccc(O)c(O)c1)c1ccccc1O
GI50 (786-0 renal): 10.6 µM
TGI (786-0 renal): 23.3 µM
GI50 (A498 renal): 16 µM
TGI (A498 renal): 32.8 µM
GI50 (A549 NSCLC): 17.1 µM
TGI (A549 NSCLC): > 100 µM
GI50 (ACHN renal): 8.31 µM
TGI (ACHN renal): 24 µM
GI50 (BT-549 breast): 3.61 µM
TGI (BT-549 breast): 18.8 µM
GI50 (CAKI-1 renal): 4.45 µM
TGI (CAKI-1 renal): 40 µM
GI50 (CCRF-CEM leukemia): 0.645 µM
TGI (CCRF-CEM leukemia): > 100 µM
GI50 (COLO 205 colon): 8.99 µM
TGI (COLO 205 colon): 21.6 µM
GI50 (DU-145 prostate): 11.7 µM
TGI (DU-145 prostate): 45.3 µM
GI50 (EKVX NSCLC): 14.4 µM
TGI (EKVX NSCLC): > 100 µM
GI50 (HCC-2998 colon): 13.9 µM
TGI (HCC-2998 colon): 27 µM
GI50 (HCT-116 colon): 11.9 µM
TGI (HCT-116 colon): 24.9 µM
GI50 (HCT-15 colon): 2.52 µM
TGI (HCT-15 colon): 19.1 µM
GI50 (HL-60(TB) leukemia): 2.4 µM
TGI (HL-60(TB) leukemia): 6.05 µM
GI50 (HOP-62 NSCLC): 12.6 µM
TGI (HOP-62 NSCLC): 50.8 µM
GI50 (HOP-92 NSCLC): 3.77 µM
TGI (HOP-92 NSCLC): 27.7 µM
GI50 (HS 578T breast): 17.2 µM
TGI (HS 578T breast): 81.9 µM
GI50 (HT29 colon): 18.4 µM
TGI (HT29 colon): 47.1 µM
GI50 (IGROV1 ovarian): 0.711 µM
TGI (IGROV1 ovarian): 23.8 µM
GI50 (K-562 leukemia): 12.5 µM
TGI (K-562 leukemia): 71.5 µM
GI50 (KM12 colon): 11.8 µM
TGI (KM12 colon): 27.6 µM
GI50 (LOX IMVI melanoma): 11 µM
TGI (LOX IMVI melanoma): 23.1 µM
GI50 (M14 melanoma): 12.9 µM
TGI (M14 melanoma): 29.9 µM
GI50 (MALME-3M melanoma): 11.4 µM
TGI (MALME-3M melanoma): 32.5 µM
GI50 (MCF7 breast): 14.6 µM
TGI (MCF7 breast): > 100 µM
GI50 (MDA-MB-231 breast): 9.51 µM
TGI (MDA-MB-231 breast): 37 µM
GI50 (MDA-MB-435): 6.45 µM
TGI (MDA-MB-435): 39.4 µM
GI50 (MOLT-4 leukemia): 1.89 µM
TGI (MOLT-4 leukemia): 97.5 µM
GI50 (NCI-H226 lung): 11 µM
TGI (NCI-H226 lung): 39.1 µM
GI50 (NCI-H23 lung): 12.7 µM
TGI (NCI-H23 lung): 32.8 µM
GI50 (NCI-H460 lung): 15.1 µM
TGI (NCI-H460 lung): 49.8 µM
GI50 (NCI-H522 lung): 0.214 µM
TGI (NCI-H522 lung): 0.809 µM
GI50 (NCI/ADR-RES ovarian): 10.8 µM
TGI (NCI/ADR-RES ovarian): 36.1 µM
GI50 (OVCAR-3 ovarian): 8.86 µM
TGI (OVCAR-3 ovarian): 24.2 µM
GI50 (OVCAR-4 ovarian): 8.73 µM
TGI (OVCAR-4 ovarian): 98.7 µM
GI50 (OVCAR-5 ovarian): 18 µM
TGI (OVCAR-5 ovarian): 40.4 µM
GI50 (OVCAR-8 ovarian): 14.7 µM
TGI (OVCAR-8 ovarian): 56.8 µM
GI50 (PC-3 prostate): 13.4 µM
TGI (PC-3 prostate): 89.8 µM
GI50 (RPMI-8226 leukemia): 0.578 µM
TGI (RPMI-8226 leukemia): 29.6 µM
GI50 (RXF 393 renal): 4.21 µM
TGI (RXF 393 renal): 17.2 µM
GI50 (SF-268 CNS): 12.1 µM
TGI (SF-268 CNS): 59 µM
GI50 (SF-295 CNS): 17.7 µM
TGI (SF-295 CNS): 54.4 µM
GI50 (SF-539 CNS): 6.69 µM
TGI (SF-539 CNS): 26.5 µM
GI50 (SK-MEL-2 melanoma): 12 µM
TGI (SK-MEL-2 melanoma): 41.7 µM
GI50 (SK-MEL-28 melanoma): 15.1 µM
TGI (SK-MEL-28 melanoma): 42.7 µM
GI50 (SK-MEL-5 melanoma): 11.4 µM
TGI (SK-MEL-5 melanoma): 28.4 µM
GI50 (SK-OV-3 ovarian): 17.7 µM
TGI (SK-OV-3 ovarian): 71.6 µM
GI50 (SN12C renal): 11.8 µM
TGI (SN12C renal): 37.5 µM
GI50 (SNB-19 CNS): 17.4 µM
TGI (SNB-19 CNS): 91.8 µM
GI50 (SNB-75 CNS): 14.7 µM
TGI (SNB-75 CNS): 94.3 µM
GI50 (SR leukemia): 3.17 µM
TGI (SR leukemia): 69.8 µM
GI50 (SW-620 colon): 11.3 µM
TGI (SW-620 colon): 26.4 µM
GI50 (T-47D breast): 5.57 µM
TGI (T-47D breast): 45.5 µM
GI50 (TK-10 renal): 18.2 µM
TGI (TK-10 renal): > 100 µM
GI50 (U251 CNS): 7.95 µM
TGI (U251 CNS): 33.1 µM
GI50 (UACC-257 melanoma): 12.8 µM
TGI (UACC-257 melanoma): 44 µM
GI50 (UACC-62 melanoma): 12.1 µM
TGI (UACC-62 melanoma): 26.1 µM
GI50 (UO-31 renal): 2.2 µM
TGI (UO-31 renal): 18 µM
